Test results taken from ChEMBL document CHEMBL5550201, “Discovery of a Highly Potent, Selective and Efficacious USP7 Degrader for the Treatment of Acute Lymphoblastic Leukemia” (J Med Chem, 2024).
Activity calls are given as the source filed them. No cut-off for these calls is given here.

How the values were obtained:
[1] = tested on: RS4-11; experiment: Induction of apoptosis in human RS4-11 cells assessed as early apoptotic cells at 100 nM measured after 72 hrs by FITC-annexin-V/PI analysis (reference value: 5.36%); format: functional
[2] = tested on: RS4-11; experiment: Induction of apoptosis in human RS4-11 cells assessed as necrotic cells at 1000 nM measured after 72 hrs by FITC-annexin-V/PI analysis (reference value: 0%); format: functional
[3] = tested on: REH; experiment: Antiproliferative activity against human REH cells with wild type p53 assessed as cell viability measured after 3 days by PMS-MTS assay; format: functional, cell-based; settings: 72 h
[4] = target: T1, von Hippel-Lindau disease tumor suppressor/Ubiquitin carboxyl-terminal hydrolase 7 (Homo sapiens, UniProt Q93009+P40337); experiment: PROTACT activity at USP7/VHL in human RS4;11 cells assessed as protein degradation at 10 nM measured after 6 hrs in presence of NEDD8-activating enzyme inhibitor […] by Western blot analysis; format: cell-based
Target sequence in this assay (P40337 whole entry, looked up): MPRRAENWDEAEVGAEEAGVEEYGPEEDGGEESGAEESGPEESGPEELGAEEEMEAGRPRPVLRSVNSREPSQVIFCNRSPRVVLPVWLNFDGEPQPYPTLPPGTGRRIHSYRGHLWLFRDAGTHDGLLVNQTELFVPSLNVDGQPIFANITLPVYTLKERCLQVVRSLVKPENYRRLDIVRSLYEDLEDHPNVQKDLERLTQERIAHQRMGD
Target sequence in this assay (Q93009 whole entry, looked up): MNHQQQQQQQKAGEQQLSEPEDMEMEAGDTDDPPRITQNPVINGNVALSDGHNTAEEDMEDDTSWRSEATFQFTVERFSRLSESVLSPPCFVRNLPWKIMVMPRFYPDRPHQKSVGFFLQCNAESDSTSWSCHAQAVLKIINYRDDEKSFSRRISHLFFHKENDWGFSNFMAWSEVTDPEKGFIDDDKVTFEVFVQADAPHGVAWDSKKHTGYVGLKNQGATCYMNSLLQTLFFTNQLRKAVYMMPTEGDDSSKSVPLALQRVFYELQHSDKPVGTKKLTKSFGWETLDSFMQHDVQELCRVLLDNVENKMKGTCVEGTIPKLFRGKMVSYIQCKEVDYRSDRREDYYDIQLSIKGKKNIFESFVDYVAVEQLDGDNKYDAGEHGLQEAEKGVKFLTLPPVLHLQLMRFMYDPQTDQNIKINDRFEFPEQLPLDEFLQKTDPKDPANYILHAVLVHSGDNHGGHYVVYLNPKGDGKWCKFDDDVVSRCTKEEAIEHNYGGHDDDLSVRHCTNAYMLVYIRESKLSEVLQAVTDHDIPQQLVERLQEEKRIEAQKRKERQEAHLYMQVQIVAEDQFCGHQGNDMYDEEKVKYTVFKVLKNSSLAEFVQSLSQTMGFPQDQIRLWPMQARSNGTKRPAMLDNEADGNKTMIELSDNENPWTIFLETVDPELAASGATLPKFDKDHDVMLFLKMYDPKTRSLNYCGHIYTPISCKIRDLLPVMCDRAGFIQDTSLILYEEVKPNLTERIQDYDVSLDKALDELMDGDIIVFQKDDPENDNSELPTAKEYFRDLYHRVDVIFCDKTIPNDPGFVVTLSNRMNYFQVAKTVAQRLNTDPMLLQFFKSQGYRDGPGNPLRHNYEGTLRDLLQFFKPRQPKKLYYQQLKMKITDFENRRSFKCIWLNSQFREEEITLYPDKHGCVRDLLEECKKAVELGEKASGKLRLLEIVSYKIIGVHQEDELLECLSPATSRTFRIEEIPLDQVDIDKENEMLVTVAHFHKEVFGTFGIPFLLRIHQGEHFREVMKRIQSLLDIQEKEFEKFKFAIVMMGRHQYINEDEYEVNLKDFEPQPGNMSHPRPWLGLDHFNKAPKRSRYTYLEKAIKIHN

[5] = tested on: RS4-11; experiment: Induction of apoptosis in human RS4-11 cells assessed as viable cells at 1000 nM measured after 72 hrs by FITC-annexin-V/PI analysis (reference value: 91.41%); format: functional; settings: read-out: Activity
[6] = tested on: RS4-11; experiment: Induction of cell cycle arrest in human RS4-11 cells assessed as assessed as total apoptotic cells at 1 nM measured after 12 hrs by flow cytometry relative to control; format: functional
[7] = target: T1, von Hippel-Lindau disease tumor suppressor/Ubiquitin carboxyl-terminal hydrolase 7; experiment: PROTACT activity at USP7/VHL in human RS4;11 cells assessed as protein degradation at 10 nM measured after 2 to 4 hrs by Western blot analysis; format: cell-based; settings: time 2-4 hrs
Target sequence in this assay (P40337 whole entry, looked up): as the sequence (P40337 whole entry, looked up) above
Target sequence in this assay (Q93009 whole entry, looked up): as the sequence (Q93009 whole entry, looked up) above

[8] = tested on: RS4-11; experiment: Induction of apoptosis in human RS4-11 cells assessed as late apoptotic cells at 1 nM measured after 72 hrs by FITC-annexin-V/PI analysis (reference value: 3.23%); format: functional
[9] = tested on: RS4-11; experiment: Antitumor activity against human RS4-11 cells xenografted in NOD/SCID mouse model assessed as decrease in USP7 level in tumor at 5 to 20 mg/kg, ip daily measured after 18 days relative to control; format: functional, organism-based; settings: dose 5-20 mg/kg, time 18.0 day
[10] = tested on: RS4-11; experiment: Antitumor activity against human RS4-11 cells xenografted in NOD/SCID mouse model assessed as tumor growth inhibition at 20 mg/kg, ip daily measured after 18 days relative to control; format: functional; settings: RS4-11, 432 h, time 18 day, read-out: TGI
[11] = tested on: RS4-11; experiment: Induction of apoptosis in human RS4-11 cells assessed as early apoptotic cells at 1 nM measured after 72 hrs by FITC-annexin-V/PI analysis (reference value: 5.36%); format: functional
[12] = target: T1, von Hippel-Lindau disease tumor suppressor/Ubiquitin carboxyl-terminal hydrolase 7; experiment: PROTACT activity at USP7/VHL in human RS4;11 cells assessed as maximal protein degradation measured after 24 hrs by Western blot analysis relative to control; format: cell-based
Target sequence in this assay (P40337 whole entry, looked up): as the sequence (P40337 whole entry, looked up) above
Target sequence in this assay (Q93009 whole entry, looked up): as the sequence (Q93009 whole entry, looked up) above

[13] = tested on: RS4-11; experiment: Induction of apoptosis in human RS4-11 cells assessed as early apoptotic cells at 10 nM measured after 72 hrs by FITC-annexin-V/PI analysis (reference value: 5.36%); format: functional
[14] = target: T1, von Hippel-Lindau disease tumor suppressor/Ubiquitin carboxyl-terminal hydrolase 7; experiment: PROTACT activity at USP7/VHL in human REH cells assessed as protein degradation at 10 to 100 nM measured after 12 hrs by Western blot analysis; format: cell-based; settings: dose 10-100 nM
Target sequence in this assay (P40337 whole entry, looked up): as the sequence (P40337 whole entry, looked up) above
Target sequence in this assay (Q93009 whole entry, looked up): as the sequence (Q93009 whole entry, looked up) above

[15] = tested on: RS4-11; experiment: Induction of cell cycle arrest in human RS4-11 cells assessed as assessed as accumulation cells at G1/G0 phase measured after 12 hrs by flow cytometry; format: functional, cell-based; settings: dose 1-1000 nM
[16] = tested on: RS4-11; experiment: Antitumor activity against human RS4-11 cells xenografted in NOD/SCID mouse model assessed as tumor growth inhibition at 10 mg/kg, ip daily measured after 18 days relative to control; format: functional; settings: RS4-11, 432 h, time 18 day, read-out: TGI
[17] = target: T1, von Hippel-Lindau disease tumor suppressor/Ubiquitin carboxyl-terminal hydrolase 7; experiment: PROTACT activity at USP7/VHL in human RS4;11 cells assessed as protein degradation at 100 nM measured after 24 hrs by Western blot analysis relative to control; format: cell-based
Target sequence in this assay (P40337 whole entry, looked up): as the sequence (P40337 whole entry, looked up) above
Target sequence in this assay (Q93009 whole entry, looked up): as the sequence (Q93009 whole entry, looked up) above

[18] = Toxicity in NOD/SCID mouse xenografted with human RS4-11 cells assessed as signs of toxicity at 5 to 20 mg/kg, ip daily measured after 18 days relative to control; format: organism-based; settings: in vivo, 432 h, dose 5-20 mg/kg, time 18 day
[19] = tested on: RS4-11; experiment: Induction of apoptosis in human RS4-11 cells assessed as viable cells at 1 nM measured after 72 hrs by FITC-annexin-V/PI analysis (reference value: 91.41%); format: functional; settings: read-out: Activity
[20] = target: T1, von Hippel-Lindau disease tumor suppressor/Ubiquitin carboxyl-terminal hydrolase 7; experiment: PROTACT activity at USP7/VHL in human RS4;11 cells assessed as protein degradation at 10 nM measured after 6 hrs in presence of (R)-3-(4-(aminomethyl)phenyl)-6-((4-hydroxy-1-(3-phenylbutanoyl)piperidin-4-yl)methyl)-2-methyl-2,6-dihydro-7H-pyrazolo[4,3-d]pyrimidin-7-one by Western blot analysis; format: cell-based
Target sequence in this assay (P40337 whole entry, looked up): as the sequence (P40337 whole entry, looked up) above
Target sequence in this assay (Q93009 whole entry, looked up): as the sequence (Q93009 whole entry, looked up) above

[21] = target: T1, von Hippel-Lindau disease tumor suppressor/Ubiquitin carboxyl-terminal hydrolase 7; experiment: PROTACT activity at USP7/VHL in human RS4;11 cells assessed as protein degradation measured after 24 hrs by Western blot analysis; format: cell-based
Target sequence in this assay (Q93009 whole entry): as the sequence (Q93009 whole entry, looked up) above
Target sequence in this assay (P40337 whole entry): as the sequence (P40337 whole entry, looked up) above

[22] = tested on: RS4-11; experiment: Induction of apoptosis in human RS4-11 cells assessed as early apoptotic cells at 1000 nM measured after 72 hrs by FITC-annexin-V/PI analysis (reference value: 5.36%); format: functional
[23] = tested on: RS4-11; experiment: Antiproliferative activity against human RS4-11 cells with wild type p53 assessed as cell viability measured after 3 days by PMS-MTS assay; format: functional, cell-based; settings: RS4-11, 72 h
[24] = target: T1, von Hippel-Lindau disease tumor suppressor/Ubiquitin carboxyl-terminal hydrolase 7; experiment: PROTACT activity at USP7/VHL in human RS4;11 cells assessed as protein degradation at 10 nM measured after 24 hrs by Western blot analysis relative to control; format: cell-based
[25] = target: T1, von Hippel-Lindau disease tumor suppressor/Ubiquitin carboxyl-terminal hydrolase 7; experiment: PROTACT activity at USP7/VHL in human OCI-Ly10 cells assessed as protein degradation at 10 to 100 nM measured after 12 hrs by Western blot analysis; format: cell-based; settings: dose 10-100 nM
[26] = tested on: RS4-11; experiment: Antiproliferative activity against human RS4-11 cells with shp53 assessed as cell viability measured after 7 days by PMS-MTS assay; format: functional, cell-based; settings: RS4-11, 168 h
[27] = tested on: RS4-11; experiment: Induction of apoptosis in human RS4-11 cells assessed as late apoptotic cells at 1000 nM measured after 72 hrs by FITC-annexin-V/PI analysis (reference value: 3.23%); format: functional
[28] = tested on: RS4-11; experiment: Induction of apoptosis in human RS4-11 cells assessed as necrotic cells at 1 nM measured after 72 hrs by FITC-annexin-V/PI analysis (reference value: 0%); format: functional
[29] = tested on: RS4-11; experiment: Induction of apoptosis in human RS4-11 cells assessed as viable cells at 100 nM measured after 72 hrs by FITC-annexin-V/PI analysis (reference value: 91.41%); format: functional; settings: read-out: Activity
[30] = target: T1, von Hippel-Lindau disease tumor suppressor/Ubiquitin carboxyl-terminal hydrolase 7; experiment: PROTACT activity at USP7/VHL in human RS4;11 cells assessed as protein degradation at 10 to 100 nM measured after 12 hrs by Western blot analysis; format: cell-based; settings: dose 10-100 nM
[31] = tested on: RS4-11; experiment: Induction of apoptosis in human RS4-11 cells assessed as late apoptotic cells at 100 nM measured after 72 hrs by FITC-annexin-V/PI analysis (reference value: 3.23%); format: functional
[32] = Toxicity in NOD/SCID mouse xenografted with human RS4-11 cells assessed as body weight change at 5 to 20 mg/kg, ip daily measured after 18 days relative to control; format: organism-based; settings: in vivo, 432 h, dose 5-20 mg/kg, time 18 day
[33] = tested on: RS4-11; experiment: Induction of apoptosis in human RS4-11 cells assessed as viable cells at 10 nM measured after 72 hrs by FITC-annexin-V/PI analysis (reference value: 91.41%); format: functional; settings: read-out: Activity

## Cc1ncsc1-c1ccc([C@H](C)NC(=O)[C@@H]2C[C@@H](O)CN2C(=O)[C@@H](c2cc(N3CCN(Cc4ccc(-c5c6ncn(CC7(O)CCN(C(=O)C[C@@H](C)c8ccccc8)CC7)c(=O)c6nn5C)cc4)CC3)no2)C(C)C)cc1
[1]
  Activity: 19.6%
[2]
  Activity: 0%
[3]
  IC50: 8.3 nM
[4]
  Activity: inactive
[5]
  viability at 1 µM: 55.3%
[6]
  Activity: 12.98%
[7]
  Activity: Active
[8]
  Activity: 12.98%
[9]
  Activity: Active
[10]
  inhibition in vivo at 20 mg/kg: 78.7%
[11]
  Activity: 12.45%
[12]
  Emax: 93.1%
[13]
  Activity: 17.36%
[14]
  Activity: Active
[15]
  Activity: Dose-Dependent Effect
[16]
  inhibition in vivo at 10 mg/kg: 60.8%
[17]
  Activity: 91.7%
[18]
  Activity: Non-Toxic
[19]
  viability at 0.001 µM: 74.6%
[20]
  Activity: inactive
[21]
  DC50: 0.74 nM
[22]
  Activity: 19.81%
[23]
  IC50: 0.5 nM
[24]
  Activity: 91.6%
[25]
  Activity: Active
[26]
  IC50: > 20000 nM
[27]
  Activity: 24.89%
[28]
  Activity: 0%
[29]
  viability at 0.1 µM: 59.7%
[30]
  Activity: Active
[31]
  Activity: 20.73%
[32]
  Activity: Non-Toxic
[33]
  viability at 0.01 µM: 65.7%
